In patent US11180504B2 (ORCHID PHARMA LTD., priority 2016, dated 2021):
Values after ≈ are worked out from the molar mass of the structure shown. Where two headings read alike, the source gives them in different places.

Experiments:
[1] = test system: methicillin-sensitive Staphylococcus aureus; test: MIC by broth micro-dilution (CLSI), methicillin-sensitive S. aureus; assay type: cell-based; settings: MSSA S. aureus ATCC29213
[2] = test system: carbapenem sensitive Escherichia coli; test: MIC by broth micro-dilution (CLSI), carbapenem sensitive E. coli; assay type: cell-based
[3] = test system: carbapenemase producing K. pneumoniae; test: MIC by broth micro-dilution (CLSI), carbapenemase producing K. pneumoniae; assay type: cell-based, Klebsiella pneumoniae
[4] = test system: carbapenem sensitive Pseudomonas aeruginosa; test: MIC by broth micro-dilution (CLSI), carbapenem sensitive P. aeruginosa; assay type: cell-based
[5] = Staphylococcus aureus, ATCC 29213 / MSSA, read-out: MIC
[6] = Escherichia coli, ATCC25922, ESBL −ve E. coli ATCC25922, read-out: MIC
[7] = Klebsiella pneumoniae, ATCCBAA1705, KPC-2 K. pneumoniae ATCC BAA-1705, read-out: MIC
[8] = Pseudomonas aeruginosa, ATCC27853, Meropenem susceptible P. aeruginosa ATCC27853, read-out: MIC
[9] = KPC-2 K. pneumoniae ATCC BAA-1705

SMILES | MIC [1, 5] [µg/mL] | MIC [2, 6] [µg/mL] | MIC [3, 7] [µg/mL] | MIC [4, 8] [µg/mL] | MIC ([3]; Klebsiella pneumoniae, ATCCBAA1705) [µg/mL] | MIC [3, 9] [µg/mL] | MIC [1] [µg/mL] | MIC ([2]; ESBL −ve E. coli ATCC25922) [µg/mL] | MIC ([4]; Meropenem susceptible P. aeruginosa ATCC27853) [µg/mL]
C[C@@H](NC(=O)Cn1cnnn1)[C@H]1C(=O)N2C(C(=O)O)=C(SC3CN(S(N)(=O)=O)C3)[C@H](C)[C@H]12 [Example 376, (4R,5S,6R)-6-((R)-1-(2-(1H-tetrazol-1-yl)acetamido)ethyl)-4-methyl-7-oxo-3-(1-sulfamoylazetidin-3-ylthio)-1-azabicyclo[3.2.0]hept-2-ene-2-carboxylic acid] | 8 (≈ 16.4 µM) | 0.25 (≈ 0.514 µM) | 16 (≈ 32.9 µM) | > 128 |  |  |  |  | 
C[C@@H](NC(=O)Cn1cnnn1)[C@H]1C(=O)N2C(C(=O)O)=C(S[C@@H]3CN[C@H](C(=O)N4C5CCC4CC4(CCNC4)C5)C3)[C@H](C)[C@H]12 (stereo partly drawn) [Example 377, (4R,5S,6R)-6-((R)-1-(2-(1H-tetrazol-1-yl)acetamido)ethyl)-3-((3S,5S)-5-(8-azaspiro[bicyclo[3.2.1]octane-3,3′-pyrrolidine]-8-ylcarbonyl)pyrrolidin-3-ylthio)-4-methyl-7-oxo-1-azabicyclo[3.2.0]hept-2-ene-2-carboxylic acid] | 4 (≈ 6.52 µM) | 0.25 (≈ 0.407 µM) |  | 8 (≈ 13 µM) | 2 (≈ 3.26 µM) |  |  |  | 
C[C@@H](NC(=O)Cn1nnnc1C1CC1)[C@H]1C(=O)N2C(C(=O)O)=C(S[C@@H]3CN[C@H](C(=O)N(C)C)C3)[C@H](C)[C@H]12 [Example 378] | 4 (≈ 7.51 µM) | 0.25 (≈ 0.469 µM) | 2 (≈ 3.75 µM) | 128 (≈ 240 µM) |  |  |  |  | 
C[C@@H](NS(=O)(=O)Cn1cnnn1)[C@H]1C(=O)N2C(C(=O)O)=C(S[C@@H]3CN[C@H](C(=O)N(C)C)C3)[C@H](C)[C@H]12 [Example 379, (4R,5S,6S)-6-((R)-1-((1H-tetrazol-1-yl)methylsulfonamido)ethyl)-3-((3S,5S)-5-(dimethylcarbamoyl)pyrrolidin-3-ylthio)-4-methyl-7-oxo-1-azabicyclo[3.2.0]hept-2-ene-2-carboxcylic acid] | 16 (≈ 30.3 µM) | 0.5 (≈ 0.946 µM) |  | > 128 |  | 16 (≈ 30.3 µM) |  |  | 
C[C@@H](NS(=O)(=O)Cn1cnnn1)[C@H]1C(=O)N2C(C(=O)O)=C(S[C@@H]3CN[C@H](C(=O)N4CC[C@@H](N)C4)C3)[C@H](C)[C@H]12 [Example 380, (4R,5S,6S)-6-((R)-1-((1H-tetrazol-1-yl)methylsulfonamido)ethyl)-3-((3S,5S)-5-((R)-3-aminopyrrolidine-1-carbonyl)pyrrolidin-3-ylthio)-4-methyl-7-oxo-1-azabicyclo[3.2.0]hept-2-ene-2-carboxylic acid] | 32 (≈ 56.2 µM) | 1 (≈ 1.76 µM) | 8 (≈ 14 µM) | 32 (≈ 56.2 µM) |  |  |  |  | 
C[C@@H](NS(=O)(=O)Cn1ncnn1)[C@H]1C(=O)N2C(C(=O)O)=C(S[C@@H]3CN[C@H](C(=O)N4CC[C@@H](N)C4)C3)[C@H](C)[C@H]12 [Example 382, (4R,5S,6S)-6-((R)-1-((2H-tetrazol-2-yl)methylsulfonamido)ethyl)-3-((3S,5S)-5-((R)-3-aminopyrroldine-1-carbonyl)pyrrolidin-3-ylthio)-4-methyl-7-oxo-1-azabicyclo[3.2.0]hept-2-ene-2-carboxylic acid] | 16 (≈ 28.1 µM) | 1 (≈ 1.76 µM) | 4 (≈ 7.02 µM) | 128 (≈ 225 µM) |  |  |  |  | 
C[C@@H](NC(=O)Cn1nnnc1N(C)C)[C@H]1C(=O)N2C(C(=O)O)=C(S[C@@H]3CN[C@H](C(=O)N(C)C)C3)[C@H](C)[C@H]12 [Example 383, (4R,5S,6R)-6-((R)-1-(2-(5-(dimethylamino)-1H-tetrazol-1-yl)acetamido)ethyl)-3-((3S,5S)-5-(dimethylcarbamoyl)pyrrolidin-3-ylthio)-4-methyl-7-oxo-1-azabicyclo[3.2.0]hept-2-ene-2-carboxylic acid] | 4 (≈ 7.47 µM) | 0.25 (≈ 0.467 µM) | 4 (≈ 7.47 µM) | > 128 |  |  |  |  | 
C[C@@H](NC(=O)Cn1nnnc1N(C)C)[C@H]1C(=O)N2C(C(=O)O)=C(S[C@@H]3CN[C@H](C(=O)N4CC[C@@H](N)C4)C3)[C@H](C)[C@H]12 [Example 384, (4R,5S,6R)-3-((3S,5S)-5-((R)-3-aminopyrrolidine-1-carbonyl)pyrrolidin-3-ylthio)-6-((R)-1-(2-(5-(dimethylamino)-1H-tetrazol-1-yl)acetamido)ethyl)-4-methyl-7-oxo-1-azabicyclo[3.2.0]hept-2-ene-2-carboxylic acid] | 4 (≈ 6.94 µM) | 0.5 (≈ 0.867 µM) | 4 (≈ 6.94 µM) | 64 (≈ 111 µM) |  |  |  |  | 
COc1nnnn1CC(=O)N[C@H](C)[C@H]1C(=O)N2C(C(=O)O)=C(S[C@@H]3CN[C@H](C(=O)N(C)C)C3)[C@H](C)[C@H]12 [Example 385, (4R,5S,6R)-3-((3S,5S)-5-(dimethylcarbamoyl)pyrrolidin-3-ylthio)-6-((R)-1-(2-(5-methoxy-1H-tetrazol-1-yl)acetamido)ethyl)-4-methyl-7-oxo-1-azabicyclo[3.2.0]hept-2-ene-2-carboxylic acid] | 4 (≈ 7.65 µM) | 0.25 (≈ 0.478 µM) | 2 (≈ 3.83 µM) | 64 (≈ 122 µM) |  |  |  |  | 
COc1nnnn1CC(=O)N[C@H](C)[C@H]1C(=O)N2C(C(=O)O)=C(S[C@@H]3CN[C@H](C(=O)N4CC[C@@H](N)C4)C3)[C@H](C)[C@H]12 [Example 386, (4R,5S,6R)-3-((3S,5S)-5-((R)-3-aminopyrrolidine-1-carbooyl)pyrrolidin-3-ylthio)-6-((R)-1-(2-(5-methoxy-1H-tetrazol-1-yl)acetamido)ethyl)-4-methyl-7-oxo-1-azabicyclo[3.2.0]hept-2-ene-2-carboxylic acid] | 2 (≈ 3.55 µM) | 0.125 (≈ 0.222 µM) | 8 (≈ 14.2 µM) | 8 (≈ 14.2 µM) |  |  |  |  | 
C[C@@H](NC(=O)Cn1cnnn1)[C@H]1C(=O)N2C(C(=O)O)=C(SC3CN(C(=O)[C@@H]4C[C@H](N)CN4)C3)[C@H](C)[C@H]12 [Example 387] | 8 (≈ 15.4 µM) | 0.25 (≈ 0.481 µM) | 8 (≈ 15.4 µM) | 32 (≈ 61.6 µM) |  |  |  |  | 
C[C@@H](NC(=O)C(N)C(F)(F)F)[C@H]1C(=O)N2C(C(=O)O)=C(S[C@@H]3CN[C@H](C(=O)N(C)C)C3)[C@H](C)[C@H]12 (stereo partly drawn) [Example 388] | 8 (≈ 15.8 µM) | 2 (≈ 3.94 µM) | 8 (≈ 15.8 µM) | > 128 |  |  |  |  | 
C[C@@H](NC(=O)C(N)C(F)(F)F)[C@H]1C(=O)N2C(C(=O)O)=C(S[C@@H]3CN[C@H](C(=O)N(C)C)C3)[C@H](C)[C@H]12 (stereo partly drawn) [Example 389, (4R,5S,6R)-6-((1R)-(2-amino-3,3,3-trifluoropropanamido)ethyl)-3-((3S,5S)-5-(dimethylcarbamoyl)pyrrolidin-3-ylthio)-4-methyl-7-oxo-1-azabicyclo[3.2.0]hept-2-ene-2-carboxylic acid] |  |  |  |  |  | 4 (≈ 7.88 µM) | 8 (≈ 15.8 µM) | 1 (≈ 1.97 µM) | >128
C[C@@H](NC(=O)CN1CCn2nnnc2C1)[C@H]1C(=O)N2C(C(=O)O)=C(S[C@@H]3CN[C@H](C(=O)N4CC[C@@H](N)C4)C3)[C@H](C)[C@H]12 [Example 390, (4R,5S,6R)-3-((3S,5S)-5-((R)-3-aminopyrrolidine-1-carbonyl)pyrrolidin-3-ylthio)-6-((R)-1-(2-(5,6-dihydrotetrazolo[1,5-a]pyrazin-7(8H)-yl)acetamido)ethyl)-4-methyl-7-oxo-1-azabicyclo[3.2.0]hept-2-ene-2-carboxylic acid] | 4 (≈ 6.79 µM) | 1 (≈ 1.7 µM) | 16 (≈ 27.2 µM) | 128 (≈ 217 µM) |  |  |  |  | 
C[C@@H](NC(=O)Cn1cnnn1)[C@H]1C(=O)N2C(C(=O)O)=C(S[C@@H]3CN[C@H](CN4CC[C@@H](N)C4)C3)[C@H](C)[C@H]12 [Example 391] | 1 (≈ 1.92 µM) | 0.5 (≈ 0.962 µM) | 0.5 (≈ 0.962 µM) | 4 (≈ 7.7 µM) |  |  |  |  | 
C[C@@H](NC(=O)Cn1nnnc1N)[C@H]1C(=O)N2C(C(=O)O)=C(S[C@@H]3CN[C@H](C(=O)N(C)C)C3)[C@H](C)[C@H]12 [Example 392, (4R,5S,6R)-6-((R)-1-(2-(5-amino-1H-tetrazol-1-yl)acetamido)ethyl)-3-((3S,5S)-5-(dimethylcarbamoyl)pyrrolidin-3-ylthio)-4-methyl-7-oxo-1-azabicyclo[3.2.0]hept-2-ene-2-carboxylic acid] | 4 (≈ 7.88 µM) | 1 (≈ 1.97 µM) | 4 (≈ 7.88 µM) | 64 (≈ 126 µM) |  |  |  |  | 
C[C@@H](NC(=O)Cn1cnnn1)[C@H]1C(=O)N2C(C(=O)O)=C(S[C@@H]3CN[C@H](C(=O)N4CC[C@@H](O)C4)C3)[C@H](C)[C@H]12 [Example 393, (4R,5S,6R)-6-((R)-1-(2-(1H-tetrazol-1-yl)acetamido)ethyl)-3-((3S,5S)-5-((R)-3-hydroxypyrrolidine-1-carbonyl)pyrrolidin-3-ylthio)-4-methyl-7-oxo-1-azabicyclo[3.2.0]hept-2-ene-2-carboxylic acid] | 4 (≈ 7.48 µM) | 0.125 (≈ 0.234 µM) | 1 (≈ 1.87 µM) | 8 (≈ 15 µM) |  |  |  |  | 
C[C@@H](NC(=O)Cc1nnc(C(F)(F)F)o1)[C@H]1C(=O)N2C(C(=O)O)=C(S[C@@H]3CN[C@H](C(=O)N4CC[C@@H](N)C4)C3)[C@H](C)[C@H]12 [Example 394, (4R,5S,6R)-3-((3S,5S)-5-((R)-3-aminopyrrolidine-1-carbonyl)pyrrolidin-3-ylthio)-4-methyl-7-oxo-6-((R)-1-(2-(5-(trifluoromethyl)-1,3,4-oxadiazol-2-yl)acetamido)ethyl)-1-azabicyclo[3.2.0]hept-2-ene-2-carboxylic acid] | 8 (≈ 13.3 µM) | 2 (≈ 3.32 µM) | 32 (≈ 53.2 µM) | 128 (≈ 213 µM) |  |  |  |  | 
